Each block holds one compound with its values, some of them ahead of it.
Legend:
[1] = not pH dependent in the physiological range; cited from earlier work
[2] = target: Bovine serum albumin (BSA) (Bos taurus, UniProt P02769); experiment: BSA labeling (gel fluorescence) after acidification; format: biochemical; details: 10 μM BSA, 10 μM compound after acidification at pH 2 for 0-60 min, then pH 8.8, 0° C., 1 hour
Protocol: To 10 μM solution of BSA in 100 mM Tris-Cl pH 8.8 was added 10 μM of Compound 53 after acidification (100 mM Tris-Cl pH 2) for 0, 1, 10, 30, or 60 minutes. […] The reaction was then allowed to proceed at 0° C. for 1 hour prior to loading onto a gel.
Bovine serum albumin (BSA) was used as a model protein to help assess the ability of Compound 53 to label proteins. BSA is known to bind to small molecules. Compound 53 was subjected to acid for varying times and then added to a solution of BSA at a pH sufficient to minimize background release of the diazonium ion (FIG. 11C). […] It is possible that this indicates a cleavage of the azobenzene linkage; however, the fluorescence could be quenched by reduction at several locations. To assess whether the standard azobenzene reduction is operative with these compounds, the resulting amino phenol may be oxidized and the ortho-iminoquinone may be trapped via established Diels-Alder chemistry. In some embodiments, molecules of the present invention can help distinguish between tyrosine and histidine modifications.

[3] = Photo-induced degradation of triazabutadienes under hand-held UV lamp, followed by NMR; format: physicochemical
Protocol: (i) The reaction was monitored by comparing starting materials (A, C, D, and E) with product (B); (ii) Peak absorption and extinction coefficients for all of the compounds were excitable by the UV source used; (iii) Time-dependent conversion of compounds was measured by NMR integration.
Referring to FIG. 5A, in some embodiments, triazabutadiene molecules of the present invention may readily photoisomerize to a more reactive Z-form. As an example, an aqueous solution of Compound A was irradiated with a simple hand-held UV lamp (“365 nm,” measured at 350 nm). Consumption of Compound A was observed after only a few hours. […] Without wishing to limit the present invention to any theory or mechanism, it was hypothesized that if a two-electron process were happening, then Compound A-Z would be more basic than Compound A-E. A 1.0 N NaOH solution of Compound A was treated with light. […] Benzene diazonium ions also absorb UV light to expel nitrogen and generate a benzene radical. In order to resolve if the initial cleavage undergoes a radical homolytic mechanism versus a two-electron heterolytic mechanism, a trapping experiment using resorcinol was conducted. (Resorcinol was chosen because it can serve a dual role as a radical scavenger and a trap benzene diazonium species that could be formed.) An excess of resorcinol was added to a pH 9 borate-buffered solution of Compound A and the mixture was irradiated with light. The known azobenzene, Sudan Orange G, was formed in a 65% yield (versus 4% for the non-irradiated reaction). Derivatives of Compound A were made to examine the effects of electronic perturbations on the light-induced degradation. […] A buffered borate solution was chosen due to its alkaline nature and lack of complicating signals in the NMR experiment. Compounds C-E all have absorption spectra that are well within the range of the UV lamp (see FIG. 5A(ii)).

[4] = Stability of non-irradiated (dark) aqueous solutions; format: physicochemical
Source text: (§1) Referring to FIG. 5A, in some embodiments, triazabutadiene molecules of the present invention may readily photoisomerize to a more reactive Z-form. As an example, an aqueous solution of Compound A was irradiated with a simple hand-held UV lamp (“365 nm,” measured at 350 nm). Consumption of Compound A was observed after only a few hours. […] Without wishing to limit the present invention to any theory or mechanism, it was hypothesized that if a two-electron process were happening, then Compound A-Z would be more basic than Compound A-E. A 1.0 N NaOH solution of Compound A was treated with light. […] Benzene diazonium ions also absorb UV light to expel nitrogen and generate a benzene radical. In order to resolve if the initial cleavage undergoes a radical homolytic mechanism versus a two-electron heterolytic mechanism, a trapping experiment using resorcinol was conducted. (Resorcinol was chosen because it can serve a dual role as a radical scavenger and a trap benzene diazonium species that could be formed.) An excess of resorcinol was added to a pH 9 borate-buffered solution of Compound A and the mixture was irradiated with light. The known azobenzene, Sudan Orange G, was formed in a 65% yield (versus 4% for the non-irradiated reaction). Derivatives of Compound A were made to examine the effects of electronic perturbations on the light-induced degradation. […]

[5] = Resorcinol trapping of diazonium species (Sudan Orange G formation); format: physicochemical; details: excess resorcinol, pH 9 borate buffer
Source text: as §1

[6] = In situ real-time pH measurement upon UV irradiation; format: physicochemical; details: water, pH adjusted to 9 before irradiation, over several minutes
Protocol: In an effort to examine the rate order for the pH-increasing reaction more carefully, in situ, real-time pH measurements were acquired. Compound A was dissolved in water and the pH of the solution was adjusted to 9 such that it would not form Compound B in the absence of light. […] This spike was not at all consistent with the model of the pH increase being solely linked to the concentration of Compound B being generated.
A sample was irradiated and then the light was turned off once the pH of the solution started to increase noticeably. […] The experiment was repeated with increasing times of irradiation, and a saw-tooth pattern was obtained. The process was not completely reversible due to some degradation to Compound B. Indeed, triazabutadiene Compound A can serve a dual role of being a photo-masked base (see FIG. 4B(i)), and a base whose intrinsic functional group properties are altered photochemically (FIG. 4B(iii)).
Referring to FIG. 5A(iii), Compound C and Compound D were examined in an effort to find a base that was reversibly basic but also more resistant to degradation.

[7] = Stability in DMSO with excess acetic acid, with or without light; format: physicochemical
Protocol: (§2) It is possible that Compound A may be useful as a photo-catalytic base in the context of organic reactions. […] As noted previously, Compound A is quite stable to an excess of acetic acid in DMSO, showing only 12% degradation over 14 hours at room temperature. […] To confirm that this was due to the acid, a solution of Compound A (in pure DMSO) was irradiated. After four hours of constant irradiation in acid-free DMSO, an E:Z ratio of nearly 50:50 was observed.

[8] = E/Z photoisomerization and thermal Z to E reversion; format: physicochemical; details: MeOD
Solubility observations = format: physicochemical; details: organic solvents
Protocol: as §2
As another non-limiting example, an azide (e.g., NHS-azide) to N-heterocyclic carbene (NHC) route may be used to synthesize triazabutadiene molecules (e.g., see FIG. 6C). For example, as shown in Compound 4 of FIG. 6D, a triazabutadiene molecule was synthesized from dimethyl imidazole derived NHC and phenyl azide. […] This change was confirmed to coincide with diazonium formation by trapping the reactive species with resorcinol to provide known diazo dye Sudan Orange G. When the triazabutadiene molecule (Compound 4) was treated with the much less acidic acetic acid, the same product was obtained.
To render the triazabutadiene water-soluble, methyl imidazole was alkylated with propane sultone to provide the Zwitterionic NHC precursor Compound 5a (see FIG. 6E). […] Compound 6a was highly colored, so its pH dependence was studied using UV/vis. The reactions were not only pH-, but also scan-frequency dependent. Upon finding this, the stability of Compound 6a was studied in D2O in the dark using NMR. Even in the dark it was unstable, but not in the diazonium-forming way. Both Compound 6b and a more hindered mesityl (Mes) substituted Compound 6c (see FIG. 6E) were synthesized to stabilize what was initially considered to be a rearrangement pathway that could be blocked by steric repulsion. […] Dissolution in 0.1 N NaOH rendered all compounds stable (e.g., no detectable degradation after 24 hours in the dark).
To further examine the reactivity of this class of compounds, variants Compound 6d and Compound 6e were synthesized (see FIG. 6G). It was hypothesized that the p-methoxy and p-nitro analogs (Compound 6d and Compound 6e, respectively) would display different reactivity profiles. […] After collecting the precipitate and dissolving it in deuterated methanol, no change was observed from a sample of Compound 6e that had never been exposed to a buffered solution. […] It is possible that: 1) that the sodium salt of Compound 6e is much less soluble than the potassium salt; or 2) with different solvating ions present the sulfonate interacts with the electron-poor N2 nitrogen atom of the triazabutadiene to break conjugation and form an insoluble complex (this is backed by a reversible color change of the starting rust-red solid, to the light yellow precipitate). […]

Bovine serum albumin (BSA), sequence (P02769 25-607): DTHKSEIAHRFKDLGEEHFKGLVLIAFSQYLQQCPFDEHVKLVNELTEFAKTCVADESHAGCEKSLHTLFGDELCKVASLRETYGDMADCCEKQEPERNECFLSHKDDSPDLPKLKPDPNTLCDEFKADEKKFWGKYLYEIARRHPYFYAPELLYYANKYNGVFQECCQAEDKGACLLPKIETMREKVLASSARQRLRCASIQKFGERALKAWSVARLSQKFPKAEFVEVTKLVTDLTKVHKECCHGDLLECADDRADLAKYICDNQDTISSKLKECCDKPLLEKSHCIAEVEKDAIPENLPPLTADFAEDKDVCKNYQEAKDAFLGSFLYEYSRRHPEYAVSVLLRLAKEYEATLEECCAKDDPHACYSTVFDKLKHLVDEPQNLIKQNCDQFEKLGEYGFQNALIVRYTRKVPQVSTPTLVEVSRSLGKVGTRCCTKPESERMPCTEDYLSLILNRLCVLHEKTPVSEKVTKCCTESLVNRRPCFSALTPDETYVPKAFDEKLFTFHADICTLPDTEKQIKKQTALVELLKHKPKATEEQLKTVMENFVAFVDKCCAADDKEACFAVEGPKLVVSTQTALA

SMILES: N#[N+]c1ccccc1 [benzenediazonium]
- Half-life of first-order degradation to phenol [1]: ~4 h

- Labeling of BSA [2]: labeled in a pH dependent manner
SMILES: Cc1cc(C)c(-n2ccn(CCCS(=O)(=O)O)c2=NN=Nc2ccc3c(C(F)(F)F)cc(=O)oc3c2)c(C)c1 [Compound 53]

- Consumption of starting material under constant irradiation at pH 14 ([3]; 1.0 N NaOH, pH 14, 20 hours constant irradiation): near complete consumption
- Consumption on UV irradiation (time) ([3]; aqueous solution, hand-held UV lamp (365 nm, measured at 350 nm)): a few hours
- Stability at pH 14 in the dark ([4]; 1.0 N NaOH solution, pH 14, dark): stable for weeks
- Stability of non-irradiated reaction ([4]; aqueous solution, similar conditions, no irradiation): stable for days
- Sudan Orange G yield, irradiated ([5]; irradiated with light): 65%
- Sudan Orange G yield, non-irradiated ([5]; non-irradiated reaction): 4%
- pH of solution upon exposure to 350 nm light [6]: ~10
- Degradation with excess acetic acid in DMSO ([7]; 14 hours, room temperature, no light): 12%
- Degradation with acetic acid in DMSO upon irradiation ([7]; irradiation with light, same time frame (14 hours)): completely fell apart
- Solubility in organic solvents (Solubility observations): limited solubility in all but DMSO
SMILES: Cc1cc(C)c(-n2ccn(CCCS(=O)(=O)[O-])c2=NN=Nc2ccccc2)c(C)c1.[K+] [Compound A]
- Rate of first-order thermal isomerization [8]: 3e-05 s⁻¹
